Measured values: PubChem BioAssay (NCI)
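96-well plates; 48 h exposure; 5 concentrations. Endpoints by linear interpolation between flanking doses. Not reached: highest tested concentration assigned. TGI denotes the concentration required for complete inhibition of growth.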 Where a SMILES comes first, the peptide text is derived from it. The star is where a group is joined. Boc = CC(C)(C)OC(=O)*

What was measured:
Assay in all cases: NCI tumour cell line growth inhibition, 48 h
DU-145 prostate = tested on: DU-145 prostate
OVCAR-3 ovarian = tested on: OVCAR-3 ovarian
NCI-H23 lung = tested on: NCI-H23 lung
CCRF-CEM leukemia = tested on: CCRF-CEM leukemia
A498 renal = tested on: A498 renal
KM12 colon = tested on: KM12 colon
HCT-116 colon = tested on: HCT-116 colon
SR leukemia = tested on: SR leukemia
UACC-257 melanoma = tested on: UACC-257 melanoma
MOLT-4 leukemia = tested on: MOLT-4 leukemia
OVCAR-8 ovarian = tested on: OVCAR-8 ovarian
RXF 393 renal = tested on: RXF 393 renal

| SMILES | TGI (DU-145 prostate) [µM] | TGI (OVCAR-3 ovarian) [µM] | TGI (NCI-H23 lung) [µM] | TGI (CCRF-CEM leukemia) [µM] | TGI (A498 renal) [µM] | TGI (KM12 colon) [µM] | TGI (HCT-116 colon) [µM] | TGI (SR leukemia) [µM] | TGI (UACC-257 melanoma) [µM] | TGI (MOLT-4 leukemia) [µM] | TGI (OVCAR-8 ovarian) [µM] | TGI (RXF 393 renal) [µM] |
| --- | --- | --- | --- | --- | --- | --- | --- | --- | --- | --- | --- | --- |
| Nc1cc(CO)cc(Nc2c3ccccc3nc3occc23)c1 | > 100 | > 100 | 71.7 | > 100 | > 100 | > 100 | 73.7 | 27.3 | > 100 | 50.1 | > 100 |  |
| Clc1ccc(OCc2nnc(CCCCCCCCc3nnc(COc4ccc(Cl)cc4Cl)o3)o2)c(Cl)c1 | > 100 |  | > 100 |  | > 100 | > 100 | > 100 |  | > 100 | > 100 |  | > 100 |
| CCOC(=O)/C=C(/C(=O)OCC)n1cc(C)c(=O)n(Cc2cnnn2CCCCOC(C)=O)c1=O | > 100 | 32.2 | 90.8 | 4.57 |  | > 100 | 32.8 |  | > 100 | 47.9 | 55.4 | > 100 |
| O=C1CSC2(CCN(CCCN3c4ccccc4Sc4ccc(Cl)cc43)CC2)N1 | 24.2 | 22.1 | 24.1 |  | 31 | 19.1 | 19.4 |  | 22 |  | 23.8 | 16.3 |
| CCCCNC(=S)Nc1nc(C(=O)NNS(=O)(=O)c2ccccc2)cs1 | > 100 | 54.2 | > 100 | > 100 | > 100 | > 100 | 69.5 | > 100 | 53.7 | > 100 | > 100 |  |
| CC1=C(C#N)S(=O)(=O)c2c(oc(C)c2C)N1 | > 100 | > 100 | > 100 |  | > 100 | > 100 | > 100 |  | > 100 | > 100 | > 100 |  |
| CN(C)c1ccc(/C=C2\N=C(c3ccccc3)N(c3nc4c(Cl)cc(Cl)cc4s3)C2=O)cc1 | > 100 | > 100 |  | 23.6 | 92.3 | > 100 | > 100 | > 100 | > 100 | > 100 | > 100 |  |
| CC(=O)O[C@H]1/C(=C/c2ccc(N(C)C)cc2)C[C@H]2[C@@H]3CC=C4C[C@@H](N5CCCC5)CC[C@]4(C)[C@H]3CC[C@]12C | > 100 | > 100 | > 100 |  | > 100 |  | > 100 | > 100 | > 100 | > 100 | > 100 | > 100 |
| CCOC(=O)/C(=C\c1ccc(CO)o1)P(=O)(OCC)OCC | > 100 | 59.9 | 57.8 |  | > 100 | > 100 | 43.8 | 71.6 | > 100 | > 100 |  | 71.1 |
| OC1CN=C2c3ccccc3C(O)(c3ccc(Cl)cc3)N2C1 (configuration not stated) | > 100 | > 100 | > 100 | > 100 |  | > 100 | > 100 | > 100 |  | > 100 | > 100 | > 100 |
| O=C(CSC1=NCCN1)c1ccccc1 | > 100 | > 100 | > 100 |  | > 100 | > 100 | > 100 | > 100 | > 100 | > 100 | > 100 | > 100 |
| CCCCCC(C)C[C@H]1CO[C@H](c2ccc[nH]2)N[C@H]1C(=O)OC (some centres not stated) | > 100 | > 100 | > 100 | > 100 | > 100 | > 100 | > 100 |  | > 100 | > 100 | > 100 | > 100 |
| O=C(c1ccco1)N(C(=S)N1CCN(c2ccccc2)CC1)c1ccccc1 |  | > 100 | > 100 | > 100 |  | > 100 | > 100 | > 100 | > 100 | > 100 | > 100 | > 100 |
| COc1ccc(CN=CN/C(C#N)=C(\N)C#N)cc1OC | > 100 | > 100 | > 100 | > 100 | > 100 | > 100 | > 100 | > 100 | > 100 | > 100 | > 100 |  |
| CC(Nc1cc(Cl)cc(Cl)c1)c1ccncc1 (configuration not stated) |  | 35.7 | 71.1 | 58 | 88.8 |  | 31.6 |  | 58.6 | 69.1 | 43 | 71.3 |
| COc1cc(C(C#N)NNC(=O)c2ccccc2O)ccc1O (configuration not stated) |  | 48.5 | 10.4 | > 100 |  | > 100 | > 100 | > 100 | 92.9 | > 100 | > 100 | 6.3 |

| SMILES | TGI (DU-145 prostate) [µM] | TGI (OVCAR-3 ovarian) [µM] | TGI (NCI-H23 lung) [µM] | TGI (CCRF-CEM leukemia) [µM] | TGI (A498 renal) [µM] | TGI (KM12 colon) [µM] | TGI (HCT-116 colon) [µM] | TGI (SR leukemia) [µM] | TGI (UACC-257 melanoma) [µM] | TGI (MOLT-4 leukemia) [µM] | TGI (OVCAR-8 ovarian) [µM] | TGI (RXF 393 renal) [µM] |
| --- | --- | --- | --- | --- | --- | --- | --- | --- | --- | --- | --- | --- |
| CC1CC[C@]2(C(=O)O)CCC3(C)C(=C2[C@H]1C)C=CC1[C@@]2(C)CC[C@H](O)C(C)(C)C2CC[C@]13C (some centres not stated) | 42.4 | 73.1 | > 100 | > 100 |  | > 100 | 64.1 | 66.1 | > 100 | > 100 | > 100 | 29 |
| COC(=O)c1ccc(OCc2ccc3oc(=O)c(-c4ccccc4)nc3c2)cc1 |  | > 100 | > 100 | 72.7 |  | > 100 | > 100 | > 100 | > 100 | > 100 | > 100 |  |
| NNC(=O)c1ccccc1NC(=O)/C(=C/c1ccccc1)NC(=O)c1ccccc1 | > 100 | > 100 | > 100 | > 100 | > 100 | > 100 | > 100 |  | > 100 | > 100 | > 100 | > 100 |
| CC(NC(=O)C(NC(=O)OC(C)(C)C)C(C)C)C(=O)NCC(=O)O (stereo not drawn) (Boc-Val-Ala-Gly-OH; configuration not given here) | > 100 | > 100 | > 100 |  |  | > 100 | > 100 | > 100 | > 100 | > 100 | > 100 | > 100 |
| Cc1ccc(-n2c(C)nc3c2C(=O)c2ccccc2C3=O)cc1 |  | 73.2 | > 100 | > 100 |  | > 100 | 21.4 | > 100 | 57 | > 100 | > 100 | > 100 |
| CSc1n[n+](C)cc(N)c1N |  | > 100 | > 100 | > 100 | > 100 | > 100 | > 100 | > 100 | > 100 | > 100 | > 100 |  |
| CC(=O)Nc1ccc(Nc2nc(=O)[nH]c(=O)[nH]2)cc1 | > 100 | > 100 | > 100 | > 100 | > 100 | > 100 | > 100 | > 100 | > 100 |  | > 100 |  |
| CC(NC(=O)c1ccc(OP(=O)(OCC2=CC(=O)c3ccccc3C2=O)N(C)CCCCCl)cc1)c1ccc(OCC2CCCCC2)c(C(N)=O)c1 (configuration not stated) | 16.7 | 17.4 | 10.2 | 30.6 |  | 30.3 | 27.5 | 34.3 | 18.6 | 30 | 29.6 |  |
| CCCc1ccc(N=Cc2cc(OC)c(OC)c(OC)c2)cc1 |  | > 100 | > 100 | > 100 | > 100 | > 100 | > 100 | > 100 | > 100 | > 100 | > 100 | > 100 |
| COc1cccc(-c2cc(=O)c3cc(C)cnc3[nH]2)c1 | > 100 | > 100 | > 100 | > 100 | > 100 |  | > 40 | 95.7 | > 100 | > 32.4 |  |  |
| CC1=C2N3C[C@@H](n4c(=O)n(C)c(=O)n43)C23CCC1n1c(=O)n(C)c(=O)n13 |  |  | > 100 | > 100 | > 100 | > 100 |  |  | > 100 | > 100 | > 100 |  |
| C/C(=N/O)c1cccc(Nc2nc3ccccc3c3[nH]c4ccccc4c23)c1 | 5.59 | 5.1 | 11.8 | > 100 |  | 9.92 | 4.77 | 3.85 | 17.6 | 3.55 | > 24.4 | 4.59 |
| O=C(c1cccs1)N(C(=O)N1CCC(c2ccccc2)CC1)c1ccccc1 | > 100 | > 100 | > 100 | > 100 | > 100 | 50.9 | > 100 |  | > 100 | > 100 | > 100 | > 100 |
| c1ccc2c(c1)SC1Sc3ccccc3[S+]21 (configuration not stated) | > 76.3 | 46 | 37.4 | 49.6 | > 100 | 31.1 | > 57 |  | 33.8 | 47.8 | > 78.3 | > 73.1 |
| O=C1NC(N2CCOCC2)=N/C1=C\c1ccccc1O | > 100 | > 100 | > 100 | > 100 | > 100 | > 100 | > 100 |  | > 100 | > 100 | > 100 | > 100 |
